In ChEMBL document CHEMBL2346550, “Synthesis of novel azo compounds containing 5(4H)-oxazolone ring as potent tyrosinase inhibitors” (Bioorg Med Chem, 2013):

Columns and labels:
[1] = target: T1, Tyrosinase (Agaricus bisporus, UniProt O42713); assay: Inhibition of diphenolase activity of mushroom tyrosinase assessed as decrease in L-DOPA chrome formation using L-DOPA as substrate preincubated with enzyme for 10 mins prior to substrate addition measured for 10 mins by spectrophotometric assay
T1 sequence (O42713 whole entry): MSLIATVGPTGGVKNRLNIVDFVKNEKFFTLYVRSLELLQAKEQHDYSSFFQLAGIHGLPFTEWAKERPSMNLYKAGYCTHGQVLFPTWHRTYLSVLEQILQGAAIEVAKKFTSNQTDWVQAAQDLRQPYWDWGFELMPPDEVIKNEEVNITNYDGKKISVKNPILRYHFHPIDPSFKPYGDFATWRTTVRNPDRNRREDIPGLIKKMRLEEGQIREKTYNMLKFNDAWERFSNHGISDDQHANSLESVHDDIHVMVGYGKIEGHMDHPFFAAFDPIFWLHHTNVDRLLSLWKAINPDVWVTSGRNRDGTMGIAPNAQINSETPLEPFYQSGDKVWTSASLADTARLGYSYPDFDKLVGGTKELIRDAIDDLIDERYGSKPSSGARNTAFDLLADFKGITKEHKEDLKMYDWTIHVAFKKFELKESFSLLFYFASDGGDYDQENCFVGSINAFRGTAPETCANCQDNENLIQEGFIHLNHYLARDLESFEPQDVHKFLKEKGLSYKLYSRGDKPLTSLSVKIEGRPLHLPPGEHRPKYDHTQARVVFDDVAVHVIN

[2] = Cytotoxicity against mouse B16F10 cells assessed as cell viability at 20 ug/ml after 72 hrs by micro-culture MTT assay; assay type: cell-based, B16-F10; conditions: read-out: Activity
[3] = tested on: B16-F10; assay: Inhibition of melanin production in mouse B16F10 cells at 20 ug/ml after 72 hrs; assay type: functional; conditions: B16-F10, 72 h

IC50 [1]	SMILES	viability at 72 h, 20 ug/ml [2]	inhibition at 20 µg/mL [3]
4.33 µM	CC(=O)Oc1c(/N=N/c2ccc(C3=N/C(=C/c4ccc(F)cc4)C(=O)O3)cc2)ccc2ccccc12	72.1%	31.3%
3.04 µM	CC(=O)Oc1ccc2ccccc2c1/N=N/c1ccc(C2=N/C(=C/c3ccc(OC(F)(F)F)cc3)C(=O)O2)cc1	68.7%	35.6%
3.98 µM	CC(=O)Oc1c(/N=N/c2ccc(C3=N/C(=C/c4ccc(OC(F)(F)F)cc4)C(=O)O3)cc2)ccc2ccccc12	73.5%	33.4%
3.91 µM	CC(=O)Oc1ccc2ccccc2c1/N=N/c1ccc(C2=N/C(=C/c3ccc(F)cc3)C(=O)O2)cc1	66.7%	32.5%
2.01 µM	CN(C)c1ccc(/N=N/c2ccc(C3=N/C(=C/c4ccc(F)cc4)C(=O)O3)cc2)cc1	71.9%	35.7%
1.44 µM	CN(C)c1ccc(/N=N/c2ccc(C3=N/C(=C/c4ccc(OC(F)(F)F)cc4)C(=O)O3)cc2)cc1	67.3%	34.3%
